{"source": "patent US20230390315A1", "about": "“COMPOSITIONS AND METHODS FOR TREATING ISCHEMIC CONDITIONS” (The Regents of the University of California, priority 2020, published 2023)", "key": {"[1]": {"molecular_target": "T1, α-mannosidase from Jack Bean (Canavalia ensiformis, UniProt C0HJB3)", "T1 construct": "purchased M7257", "assay": "α-mannosidase activity assay", "assay_type": "biochemical", "method": "a-mannosidase activity was measured using substrate p-nitrophenyl α-mannopyranoside (1 mM). Enzyme from Jack Bean ([MUT]) (final concentration of 0.077 U) was incubated at 37° C. in a final volume of 50 μl of 50 mM potassium phosphate buffer, pH 7.5. α-glucosidase was assayed with substrate p-nitrophenyl α-glucoside (7 mM). […] The incubation was stopped by addition of an equal volume of acid-based stop solution (R&D systems, 895032)."}, "[2]": {"test_system": "protein glycosylation in BCECs", "assay": "N-glycan, monosaccharide, sialic acid and O-glycan analysis of BCECs", "assay_type": "cell-based, bovine", "protocol": "As soon as BCECs reached about 80% confluency, they were washed twice with phosphate buffered saline (PBS, Sigma) and harvested by scraping. The cells were pelleted by centrifugation at 300 g for 3 mins and washed once with cold PBS. Cells were homogenized and total protein was measured. All subsequent analysis was based on known protein amount.\nN-linked glycans were removed from glycoprotein samples using PNGase-F kit (New England BioLabs, P0705S). Briefly, 300 μg of protein sample was reconstituted in 180 μl UltraPure water. 20 μl of 10× denaturing buffer was added and boiled using 100° C. water bath for 14 mins. Samples were cooled down to room temperature and centrifuged at 2700 g for 1 min. Subsequently, 50 μl 10×NP-40 was added and samples were kept at room temperature for 30 mins with vortexing at 5 min interval, followed by adding 25 μL of 10×reaction buffer and mixing thoroughly. 5 μl PNGaseF (2500 U) was then added to the samples and mixed gently. Samples were incubated at 37° C. for 16 hrs. Released N-glycans were purified using solid phase extraction method. Briefly, N-glycans were purified by passing the reaction mixture sequentially over pre-conditioned Sep-Pak C18 1 cc cartridge (Waters) and HyperSep PGC ([…]) cartridge (25 mg, 1 ml Thermo Scientific). The cartridge was washed with 4 ml of water and the PGC alone was washed with additional 1 ml of water. N-glycans bound to PGC were eluted using 30% acetonitrile containing 0.1% TFA in water. Finally, purified N-glycans were lyophilized and labeled with 2-AB. Briefly, samples were dissolved in 10 μl solution of 0.44 M 2-AB (2-Amino benzamide) in 35% acetic acid in DMSO containing 1M sodium cyanoborohydride. The samples were incubated at 65° C. for 2.5 hrs. The 2-AB labeled glycans were purified using GlycoClean S cartridge (GLYKO) following their glycan clean-up protocol. Excess reagent was removed from the samples using Glycoclean S-cartridge (Prozyme) and labelled glycans were dried using SpeedVac and stored at −20° C. Profiling of 2-AB labeled glycans was obtained using Dionex CarboPac PA1 (4×250 mm) anion exchange column along with a guard column (4×50 mm) at flow rate of 1 ml/min. Glycans were separated in 100 mM sodium hydroxide with a sodium acetate gradient of 0-250 mM in 0-75 minutes. The data was collected using the Dionex ICS-3000 HPLC system with Ultimate 3000 fluorescence detector (Dionex) set at λex 330 nm at tem 420 nm with sensitivity 7. The data was processed using Chromeleon software (Thermo Scientific).\nMonosaccharide composition analysis was done using HPAEC-PAD (Thermo-Dionex ICS3000) and nmole amount of each monosaccharide present in 25 μg of protein was calculated. Samples were hydrolyzed using 2 N trifluoroacetic acid (TFA) at 100° C. for 4 hrs. Followed by removal of acid using dry nitrogen flush. To ensure complete removal of acid, samples were co-evaporated twice with 100 μl of 50% isopropyl alcohol (IPA). Finally, the samples were dissolved in Milli-Q water and injected on HPAEC-PAD. Monosaccharide profile was done using Dionex CarboPac™ PA1 column (250 mm×4 mm; with 50 mm×4 mm guard column). […] All neutral and amino sugars were identified and quantified by comparing with authentic monosaccharide standard mixture consisting of L-fucose, D-galactosamine, D-glucosamine, D-galactose, D-glucose and D-mannose.\nMild acid hydrolysis was used to release sialic acid. […] Known amount of standard Neu5Ac was used to quantify amount of sialic acid in samples. […]"}, "U87MG": {"test_system": "U87MG", "assay": "U87MG proliferation assay", "assay_type": "cell-based, human", "protocol": "(§1) Proliferation assays with fibroblasts were done in low-glucose DMEM containing 1% FBS, with or without 10 ng/ml bFGF, or 100 ng/ml human EGF and the assay was ended at day 3. ARPE-19 cells were gently lifted with 0.025% trypsin and plated in RtEGM media (Clonetics) containing 2% FBS, L-glutamine, human bFGF and GA-1000. Once cells were attached to plates, serum-free RtEGM media was used to maintain the cultures. For proliferation assays, 1500 human RPE cells were plated into 96-well plates in low-glucose DMEM containing 1% FBS. A673, U87MG, Calu6 and AML12 cells were grown until confluent and were then harvested and re-suspended in appropriate assay media. For proliferation assays, cells were plated at the density of 1000-2000 cells/well in low-glucose DMEM containing 5% FBS or otherwise stated. Bovine pituitary cells (pituitary folliculostellate cells) were isolated as previously described. For proliferation assays with human epidermal keratinocytes, human DMVECs and human dermal fibroblast cells, 1000 cells/well were plated in low-glucose DMEM containing 1% FBS with or without various growth factors. The assay was ended at day 3 for bovine pituitary cells and at day 4 for all the other cell types. […] Four days later, tumor cell growth was measured by the MTS assay (Promega, Madison, WI), a colorimetric assay that measures metabolic activity of viable cells. […]"}, "NIH3T3 fibroblasts": {"test_system": "NIH3T3 fibroblasts", "assay": "NIH3T3 proliferation assay", "assay_type": "cell-based, mouse", "settings": "alone or in combination with growth factors", "protocol": "as §1"}}}
{"smiles": "N[C@H](C=O)[C@@H](O)[C@H](O)[C@H](O)CO", "note": "[ManN, 2-Amino-2-deoxy-D-mannose]", "values": [{"measurement": "concentration showing inhibitory activity", "setting": "[1]", "result": 400, "unit": "µM"}, {"measurement": "fucose (8 hours), mannose (12 hours), galactose (24 hours) and Neu5Ac (8 and 24 hours) content vs untreated control", "setting": "[2]", "result": "significant decrease"}, {"measurement": "incorporation of ManN in N-glycans", "setting": "[2]", "result": "No incorporation of ManN was detected"}, {"measurement": "Man-5 and Man-7 content", "setting": "[2]; 40 uM ManN", "result": "significant early phase accumulation"}, {"measurement": "Man-6, Man-8 and Man-9 in total oligomannose N-glycan content vs untreated control", "setting": "[2]; 40 uM ManN", "result": "significant time-dependent reduction"}, {"measurement": "O-glycosylation", "setting": "[2]; 40 uM ManN, MALDI-Tof", "result": "overall decrease in O-glycosylation"}, {"measurement": "growth of U87MG", "setting": "U87MG", "result": "did not promote growth"}, {"measurement": "proliferation of NIH3T3 cells", "setting": "NIH3T3 fibroblasts", "result": "no increases in proliferation"}]}
